# Measurements as given in patent US20240391940A1, “FUSED RING-CONTAINING COMPOUND, APPLICATION THEREOF, AND COMPOSITION CONTAINING SAME” (GenEros Biopharma Ltd., priority 2020, published 2024).
# Several values for one entry are separate records, joined by “and”; a condition that tells them apart may be missing. Equal values may be shown once.
# Test system: adjuvant arthritis (AIA) rat model
# Test: Rat AIA (adjuvant arthritis) model
# Type: in vivo, Lewis rats
# Conditions: for Hind paw volume / body weight / clinical scores: 10 mg/kg daily from day 9, individual animals, 10 mg/kg
smiles,measurement,setting,value
"O=C(Cc1ccc2ncccc2c1)N1CCC(n2c(=O)[nH]c3cccc(C(F)(F)F)c32)CC1 [GEN1-117, 1-(1-(2-(Quinolin-6-yl)acetyl)piperidin-4-yl)-7-(trifluoromethyl)-1H-benzo[d]imidazol-2(3H)-one]",Maximum arthritis index score compared to the control rats,,can effectively relieve the AIA rat arthritis disease model
same,Body weight change,"AIA rats, GEN1-117 intervention group",gained significant weight
same,Increase in hind paw volume and clinical score,"AIA rats, daily intraperitoneal injection",dose-dependently inhibited
same,Hind paw volume,"AIA rats, day 9",1.23 and 1.41 and 1.46 and 1.38 (2×) and 1.18 and 1.15 and 1.31 and 1.35 and 1.12 and 1.68 and 1.27
same,body weight,"AIA rats, day 9",166 g and 154 g (2×) and 153 g (2×) and 158 g and 145 g and 169 g (2×) and 175 g and 168 g and 164 g
same,clinical scores,"AIA rats, day 9",0 (9×) and 0.17 and 1 (2×)
same,body weight,"AIA rats, day 10",156 g and 151 g and 155 g and 152 g (2×) and 143 g and 135 g and 159 g and 165 g and 158 g (3×)
same,Hind paw volume,"AIA rats, day 11",1.19 and 1.3 (2×) and 1.65 and 0.97 and 1.17 and 1.18 (2×) and 1.13 and 1.08 and 1.92 and 1.23
same,body weight,"AIA rats, day 11",156 g and 150 g and 153 g and 152 g and 140 g and 132 g and 155 g (2×) and 164 g and 158 g and 157 g and 146 g
same,clinical scores,"AIA rats, day 11",0 (8×) and 0.75 and 2.5 and 1.5 and 0.5
same,body weight,"AIA rats, day 12",158 g and 153 g and 154 g and 155 g and 143 g and 137 g and 159 g and 164 g and 160 g and 156 g and 162 g and 148 g
same,Hind paw volume,"AIA rats, day 13",1.25 (2×) and 1.93 and 2.35 and 1.08 and 1.26 (2×) and 0.84 and 1.38 and 1.03 and 2.32 and 1.28
same,body weight,"AIA rats, day 13",157 g and 158 g and 155 g and 159 g and 145 g and 143 g and 161 g (2×) and 167 g and 165 g and 169 g and 149 g
same,clinical scores,"AIA rats, day 13",0 (7×) and 1 (2×) and 3 and 0.17 and 1.67
same,body weight,"AIA rats, day 14",164 g (2×) and 160 g and 155 g and 166 g and 151 g and 150 g (2×) and 170 g (2×) and 173 g and 172 g
same,Hind paw volume,"AIA rats, day 15",1.27 (2×) and 2.03 and 2.2 and 1.04 and 1.1 and 1.38 and 1.08 and 1.11 and 1.26 and 2.93 and 1.66
same,body weight,"AIA rats, day 15",162 g and 159 g and 151 g (2×) and 169 g and 154 g and 176 g and 174 g (2×) and 170 g and 175 g and 149 g
same,clinical scores,"AIA rats, day 15",0 (4×) and 2 (2×) and 5.5 and 0.17 (4×) and 3.5
same,body weight,"AIA rats, day 16",165 g and 164 g and 158 g and 135 g and 156 g and 155 g and 180 g and 177 g and 179 g and 175 g and 176 g and 147 g
same,body weight,"AIA rats, day 17",169 g and 170 g and 152 g and 181 g
same,clinical scores,"AIA rats, day 17",0 (8×) and 1.83 (2×) and 5 and 3.5
same,Hind paw volume,"AIA rats, day 17, in mL (unit assumed)",1.14 and 2.03 and 1.62 and 0.88 and 1.12 and 1.28 and 1.06 and 1.41 and 1.09 and 1.03 and 2.61 and 1.88
same,clinical scores,"AIA rats, day 19",0 (7×) and 2.5 and 4 and 0.5 and 2 and 4.25
same,Hind paw volume,"AIA rats, day 19, in mL (unit assumed)",1.42 and 3.18 and 2.26 and 1.39 and 1.25 and 1.37 and 1.26 and 1.65 and 1.28 and 1.38 and 2.43 and 2.78
same,Hind paw volume,"AIA rats, day 21",1 and 3.15 and 1.95 and 1.08 (2×) and 0.86 and 1.09 and 1.33 and 1.04 and 1.14 and 2.65 and 2.14
same,clinical scores,"AIA rats, day 21",0 (7×) and 2.67 and 5.33 and 0.5 and 2 and 4.17
same,Hind paw volume,"AIA rats, day 23",0.99 and 3.36 and 2.21 and 1.25 and 0.88 and 0.93 and 0.96 and 1.26 and 1.08 (2×) and 2.87 and 1.89
same,clinical scores,"AIA rats, day 23",0 (7×) and 3 and 4 (2×) and 0.5 and 2.5
same,Clinical scores compared to the control rats,days 13-23,significant reductions in clinical scores
same,Hind paw volume compared to the control rats,days 17-23,significantly decreased
